{"source": "patent US20070122360A1", "about": "“Nonaqueous gel composition for tooth whitening and tooth whitening set” (LION CORPORATION, priority 2003, published 2007)", "key": {"[1]": {"assay": "Measurement of relative permittivity (LCR meter, 100 kHz, 1 V)", "assay_type": "physicochemical", "method": "The sample (100 mL) was tested for relative permittivity at 25° C. at a frequency of 100 kHz and a voltage of 1 V by using an LCR meter (HP4284A, with HP16452A electrode for liquid, from Hewlett Packard)."}, "[2]": {"assay": "Measurement of vapor pressure (vapor-liquid equilibrium apparatus)", "method": "The sample (80 mL in a cell) was tested for vapor pressure at (25° C.) by using a vapor-liquid equilibrium measuring apparatus (VLE autolabo, from TOYO KOATSU Co., Ltd.)."}, "[3]": {"assay": "Solubility of ingredient (B) in tooth whitening ingredient (A), visual check for undissolved residues", "conditions": "for Solubility in PEG#300 (Av. MW 280-320): 0.1 g in 100 g PEG#300, 37° C.; for Solubility in 1,3-butylene glycol: 0.1 g in 100 g 1,3-butylene glycol", "procedure": "(§1) If the ingredient (B) is liquid, the term “is precipitated by an aqueous solution of calcium chloride” means that the ingredient (B) forms precipitates or becomes turbid.\nA sample (0.1 g) of the ingredient (B) is added to 100 g of the tooth whitening ingredient (A), and the resulting mixture is stirred at 37° C. for 16 hours and allowed to stand at 37° C. for 24 hours. The mixture is visually examined for undissolved residues of the ingredient (B).\nCriterion for Overall Rating: • ◯: More than 0.1 g is soluble in 100 g of ingredient (A) and less than 0.1 g is soluble in 100 g of aqueous solution of 1 mmol/L calcium chloride.\nX: Other than specified above."}, "[4]": {"assay": "Solubility of ingredient (B) in aqueous solution of 1 mmol/L calcium chloride", "conditions": "0.1 g in 100 g aqueous 1 mmol/L calcium chloride, 37° C.", "procedure": "as §1\nSolubility of the ingredient (B) in an aqueous solution of 1 mmol/L calcium chloride was determined in the same way as above."}}, "data": [{"smiles": "CC(O)CCO", "note": "(stereo not shown) [1,3-dibutylene glycol]", "values": [{"measurement": "Relative Permittivity (at 25° C.)", "setting": "[1]", "value": 33.5}, {"measurement": "Vapor pressure kPa (at 25° C.)", "setting": "[2]", "value": 108, "unit": "kPa"}]}, {"smiles": "OCCOCCO", "note": "[Diethylene glycol]", "values": [{"measurement": "Relative Permittivity (at 25° C.)", "setting": "[1]", "value": 33.0}, {"measurement": "Vapor pressure kPa (at 25° C.)", "setting": "[2]", "value": 11, "unit": "kPa"}]}, {"smiles": "CC(O)COC(C)CO", "note": "(stereo not shown) [Dipropylene glycol]", "values": [{"measurement": "Relative Permittivity (at 25° C.)", "setting": "[1]", "value": 26.2}, {"measurement": "Vapor pressure kPa (at 25° C.)", "setting": "[2]", "value": 0, "unit": "kPa"}]}, {"smiles": "CCCCCCCC/C=C\\CCCCCCCCCCCC(=O)O", "note": "[Erucic acid]", "values": [{"measurement": "Solubility in PEG#300 (Av. MW 280-320)", "setting": "[3]", "value": "◯ (solubility more than 0.1 g (no undissolved residues))"}, {"measurement": "Solubility in Aqueous solution of 1 mmol/L calcium chloride", "setting": "[4]", "value": "X (solubility less than 0.1 g (with undissolved residues))"}]}, {"smiles": "CCO", "note": "[Ethanol]", "values": [{"measurement": "Relative Permittivity (at 25° C.)", "setting": "[1]", "value": 24.6}, {"measurement": "Vapor pressure kPa (at 25° C.)", "setting": "[2]", "value": 7948, "unit": "kPa"}]}, {"smiles": "OCCO", "note": "[Ethylene glycol]", "values": [{"measurement": "Relative Permittivity (at 25° C.)", "setting": "[1]", "value": 37.7}, {"measurement": "Vapor pressure kPa (at 25° C.)", "setting": "[2]", "value": 59, "unit": "kPa"}]}, {"smiles": "OCC(O)CO", "note": "[Glycerin]", "values": [{"measurement": "Relative Permittivity (at 25° C.)", "setting": "[1]", "value": 42.5}, {"measurement": "Vapor pressure kPa (at 25° C.)", "setting": "[2]", "value": 3, "unit": "kPa"}]}, {"smiles": "CC(C)O", "note": "[Isopropanol]", "values": [{"measurement": "Relative Permittivity (at 25° C.)", "setting": "[1]", "value": 19.9}, {"measurement": "Vapor pressure kPa (at 25° C.)", "setting": "[2]", "value": 5819, "unit": "kPa"}]}, {"smiles": "CCCCCCCCCCCC(=O)O", "note": "[Lauric acid, reference compound]", "values": [{"measurement": "Solubility in 1,3-butylene glycol", "setting": "[3]; 37° C.", "value": "◯ (solubility more than 0.1 g (no undissolved residues))"}, {"measurement": "Solubility in Aqueous solution of 1 mmol/L calcium chloride", "setting": "[4]", "value": "◯ (solubility more than 0.1 g (no undissolved residues))"}]}, {"smiles": "CCCCCCCCCCCCCC(=O)O", "note": "[Myristic acid]", "values": [{"measurement": "Solubility in PEG#300 (Av. MW 280-320)", "setting": "[3]", "value": "◯ (solubility more than 0.1 g (no undissolved residues))"}, {"measurement": "Solubility in Aqueous solution of 1 mmol/L calcium chloride", "setting": "[4]", "value": "X (solubility less than 0.1 g (with undissolved residues))"}]}, {"smiles": "CCCCCCCC/C=C\\CCCCCCCC(=O)O", "note": "[Oleic acid]", "values": [{"measurement": "Solubility in PEG#300 (Av. MW 280-320)", "setting": "[3]", "value": "◯ (solubility more than 0.1 g (no undissolved residues))"}, {"measurement": "Solubility in Aqueous solution of 1 mmol/L calcium chloride", "setting": "[4]", "value": "X (solubility less than 0.1 g (with undissolved residues))"}]}, {"smiles": "CCCCCC/C=C\\CCCCCCCC(=O)O", "note": "[Palmitoleic acid]", "values": [{"measurement": "Solubility in 1,3-butylene glycol", "setting": "[3]; 37° C.", "value": "◯ (solubility more than 0.1 g (no undissolved residues))"}, {"measurement": "Solubility in PEG#300 (Av. MW 280-320)", "setting": "[3]", "value": "◯ (solubility more than 0.1 g (no undissolved residues))"}, {"measurement": "Solubility in Propylene glycol", "setting": "[3]; 0.1 g in 100 g Propylene glycol, 37° C.", "value": "◯ (solubility more than 0.1 g (no undissolved residues))"}, {"measurement": "Solubility in Aqueous solution of 1 mmol/L calcium chloride", "setting": "[4]", "value": "X (solubility less than 0.1 g (with undissolved residues))"}]}, {"smiles": "CC(O)CO", "note": "(stereo not shown) [Propylene glycol]", "values": [{"measurement": "Relative Permittivity (at 25° C.)", "setting": "[1]", "value": 32.0}, {"measurement": "Vapor pressure kPa (at 25° C.)", "setting": "[2]", "value": 1, "unit": "kPa"}]}, {"smiles": "O", "note": "[Water]", "values": [{"measurement": "Relative Permittivity (at 25° C.)", "setting": "[1]", "value": 78.3}]}, {"smiles": "[Cl-].[Cl-].[Zn+2]", "note": "[Zinc chloride, reference compound]", "values": [{"measurement": "Solubility in 1,3-butylene glycol", "setting": "[3]; 37° C.", "value": "◯ (solubility more than 0.1 g (no undissolved residues))"}, {"measurement": "Solubility in Aqueous solution of 1 mmol/L calcium chloride", "setting": "[4]", "value": "◯ (solubility more than 0.1 g (no undissolved residues))"}]}]}
